Source: patent US11006631B2, “Substituted pyrimidinyloxy pyridine derivatives as herbicides” (FMC Corporation, priority 2015, dated 2021)

How the values were obtained:
Type in all cases: in vivo
[1] = test system: galium (catchweed bedstraw, Galium aparine); assay: Test A postemergence, galium; conditions: 0 to 100 scale
Source text: (§1) Seeds of plant species selected from bamyardgrass (Echinochloa crus-galli), kochia (Kochia scoparia), ragweed (common ragweed, Ambrosia elatior), ryegrass, Italian (Italian ryegrass, Lolium multiflorum), foxtail, giant (giant foxtail, Setaria faberii), pigweed (Amaranthus retroflexus), crabgrass, large (large crabgrass, Digitaria sanguinalis), momingglory (Ipomoea spp.), velvetleaf (Abutilon theophrasti), wheat (Triticum aestivum), and corn (Zea mays) were planted into a blend of loam soil and sand and treated preemergence with a directed soil spray using test chemicals formulated in a non-phytotoxic solvent mixture which included a surfactant. At the same time, plants selected from these crop and weed species and also blackgrass (Alopecurus myosuroides), and galium (catchweed bedstraw, Galium aparine) were planted in pots containing the same blend of loam soil and sand and treated with postemergence applications of test chemicals formulated in the same manner. Plants ranged in height from 2 to 10 cm and were in the one- to two-leaf stage for the postemergence treatment. Treated plants and untreated controls were maintained in a greenhouse for approximately 10 days, after which time all treated plants were compared to untreated controls and visually evaluated for injury. Plant response ratings, summarized in Table A, are based on a 0 to 100 scale where 0 is no effect and 100 is complete control. A dash (-) response means no test result.

[2] = test system: ryegrass, Italian (Italian ryegrass, Lolium multiflorum); assay: Test A preemergence, ryegrass, Italian; conditions: 0 to 100 scale
Source text: as §1

[3] = test system: foxtail, giant (giant foxtail, Setaria faberii); assay: Test A postemergence, foxtail, giant; conditions: 0 to 100 scale
Procedure, shortened: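 Greenhouse pot test, loam + sand. Preemergence = soil spray at sowing; postemergence = foliar spray, 1–2 leaf stage, 2–10 cm tall. ~10 d, then visual injury vs untreated, 0–100.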

[4] = test system: chickweed (common chickweed, Stellaria media); assay: Test C postemergence, chickweed
Source text: Seeds of plant species selected from blackgrass (Alopecurus myosuroides), ryegrass, Italian (Italian ryegrass, Lolium multiflorum), wheat (winter wheat, Triticum aestivum), galium (catchweed bedstraw, Galium aparine), corn (Zea mays), crabgrass, large (large crabgrass, Digitaria sanguinalis), foxtail, giant (giant foxtail, Setaria faberii), lambsquarters (Chenopodium album), morningglory (Ipomoea coccinea), nutsedge, yellow (yellow nutsedge, Cyperus esculentus), pigweed (Amaranthus retroflexus), johnsongrass (Sorghum halepense), ragweed (common ragweed, Ambrosia elatior), soybean (Glycine max), barnyardgrass (Echinochloa crus-galli), oilseed rape (Brassica napus), waterhemp (common waterhemp, Amaranthus rudis), chickweed (common chickweed, Stellaria media), oat, wild (wild oat, Avena fatua), kochia (Kochia scoparia), and velvetleaf (Abutilon theophrasti) were planted in pots containing Redi-Earth® planting medium (Scotts Company, 14111 Scottslawn Road, Marysville, Ohio 43041) comprising spaghnum peat moss, vermiculite, wetting agent and starter nutrients and treated with postemergence applications of a test chemical formulated in a non-phytotoxic solvent mixture which included a surfactant. Plants ranged in height from 2 to 18 cm (1- to 4-leaf stage) for postemergence treatments. Treated plants and controls were maintained in a greenhouse for 13 to 15 days, after which time all species were compared to controls and visually evaluated. Plant response ratings, summarized in Table C, are based on a scale of 0 to 100 where 0 is no effect and 100 is complete control. A dash (-) response means no test result.

FC(F)c1cc(-c2ncccc2Oc2ncc(Cl)cn2)on1 [Compound 5, 5-chloro-2-[[2-[3-(difluoromethyl)-5-isoxazolyl]-3-pyridinyl]oxy]pyrimidine]
Plant response rating, Galium ([1]; 31 g ai/ha): 40
Plant response rating, Galium ([1]; 125 g ai/ha): 60
Plant response rating, Ryegrass, Italian ([2]; 31 g ai/ha): 0
Plant response rating, Ryegrass, Italian ([2]; 125 g ai/ha): 0
Plant response rating, Foxtail, Giant ([3]; 31 g ai/ha): 0
Plant response rating, Foxtail, Giant ([3]; 125 g ai/ha): 10
Plant response rating, Chickweed ([4]; 16 g ai/ha): 35
Plant response rating, Chickweed ([4]; 31 g ai/ha): 40
Plant response rating, Chickweed ([4]; 62 g ai/ha): 55
Plant response rating, Chickweed ([4]; 125 g ai/ha): 60
